From PubChem BioAssay AID1919002 (Molecular Pharmacology Branch, DTP, NCI, 2023)

Test system: 743489-274-T-PDC complex spheroid growth
Test: Anticancer human tumor 743489-274-T-PDC patient-derived renal cell carcinoma cell line growth inhibition [AhR]
Conditions: for IC50: curve of first compound; for viability, T/C: stronger effect = lower value
Method in brief: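 Complex tumor spheroids co-cultured with HUVEC and human MSC stroma; AhR antagonists tested in combination with standard-of-care and investigational agents. Top concentration at or near clinical Cmax (else 10 microM), half-log dilutions; growth expressed as percent test/control.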
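Further: spheroids exposed to agents for 7 days before readout.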
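Wherever viability, T/C is given: 100% = DMSO vehicle control wells.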

Compound: CC(C)CC(NC(=O)C(Cc1ccccc1)NC(=O)c1cnccn1)B(O)O (stereo not given) + CC(CO)NC(=O)c1cc(-c2ccc(Cl)cc2)nn(-c2cnn(C)c2)c1=O
- IC50 (second compound 0.1 µM): 0.0213 µM
- IC50 (second compound 0.316 µM): 0.0215 µM
- IC50 (second compound 1 µM): 0.0198 µM
- IC50 (second compound 3.16 µM): 0.0182 µM
- IC50 (second compound 10 µM): 0.0166 µM
- viability, T/C (second compound 0.1 µM, first compound 0.000949 µM): 106%
- viability, T/C (second compound 0.1 µM, first compound 0.003 µM): 102%
- viability, T/C (second compound 0.1 µM, first compound 0.00949 µM): 104%
- viability, T/C (second compound 0.1 µM, first compound 0.03 µM): 27.3%
- viability, T/C (second compound 0.1 µM, first compound 0.0949 µM): 10.7%
- viability, T/C (second compound 0.1 µM, first compound 0.3 µM): 4.68%
- viability, T/C (second compound 0.316 µM, first compound 0.000949 µM): 90.2%
- viability, T/C (second compound 0.316 µM, first compound 0.003 µM): 102%
- viability, T/C (second compound 0.316 µM, first compound 0.00949 µM): 102%
- viability, T/C (second compound 0.316 µM, first compound 0.03 µM): 30.3%
- viability, T/C (second compound 0.316 µM, first compound 0.0949 µM): 11.1%
- viability, T/C (second compound 0.316 µM, first compound 0.3 µM): 4.81%
- viability, T/C (second compound 1 µM, first compound 0.000949 µM): 90.5%
- viability, T/C (second compound 1 µM, first compound 0.003 µM): 104%
- viability, T/C (second compound 1 µM, first compound 0.00949 µM): 94.9%
- viability, T/C (second compound 1 µM, first compound 0.03 µM): 24.6%
- viability, T/C (second compound 1 µM, first compound 0.0949 µM): 9.8%
- viability, T/C (second compound 1 µM, first compound 0.3 µM): 4.5%
- viability, T/C (second compound 3.16 µM, first compound 0.000949 µM): 94.3%
- viability, T/C (second compound 3.16 µM, first compound 0.003 µM): 96.7%
- viability, T/C (second compound 3.16 µM, first compound 0.00949 µM): 87.1%
- viability, T/C (second compound 3.16 µM, first compound 0.03 µM): 21.2%
- viability, T/C (second compound 3.16 µM, first compound 0.0949 µM): 10.7%
- viability, T/C (second compound 3.16 µM, first compound 0.3 µM): 3.25%
- viability, T/C (second compound 10 µM, first compound 0.000949 µM): 98%
- viability, T/C (second compound 10 µM, first compound 0.003 µM): 111%
- viability, T/C (second compound 10 µM, first compound 0.00949 µM): 85.4%
- viability, T/C (second compound 10 µM, first compound 0.03 µM): 12.6%
- viability, T/C (second compound 10 µM, first compound 0.0949 µM): 10.3%
- viability, T/C (second compound 10 µM, first compound 0.3 µM): 4.28%
